Assay results as given in patent publication US6914045B2, “Glycopeptide antibiotics” (Wyeth Holdings Corporation, priority 2001, dated 2005).
Values after ≈ are worked out from the molar mass of the structure shown.

Assays:
Assay in all cases: in vitro antibacterial evaluation, MIC by broth dilution
Type in all cases: cell-based
Enterococcus sp. = conditions: broth dilution, 18 hours at 35° C.
In short: (§1)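 Step 1: dilute antibiotic across 64-0.06 μg/mL in Muller-Hinton II […]. Step 2: inoculate at 5×10^5 CFU/mL.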

Escherichia coli = tested on: Escherichia coli
In short: as §1

Staphylococcus sp. = conditions: broth dilution, 18 hours at 35° C.
In short: as §1

Streptococcus sp. = conditions: broth dilution, 18 hours at 35° C.
In short: as §1

Q: Which results are given for `CC(c1ccccc1)C1NC(=O)CNC(=O)C(CO)NC(=O)C(C(O)C2CNC(=N)N2C2OC(CO)C(O)C(O)C2O)NC(=O)C(C(O)C2CNC(=N)N2)NC(=O)C(Cc2ccc(OC3OC(CO)C(OC4OC5COC(c6ccc(C(C)(C)C)cc6)OC5C(O)C4O)C(O)C3O)cc2)NC1=O` (centres unmarked) [Example 147]?
A: MIC Enterococcus avium (GC 4558) (Enterococcus sp.; Enterococcus avium (GC 4558)): 0.5 to 2 µg/mL; MIC Enterococcus faecalis (ATCC 29212) (Enterococcus sp.; Enterococcus faecalis (ATCC 29212)): 0.5 to 2 µg/mL; MIC Enterococcus faecalis (GC 2242) (Enterococcus sp.; Enterococcus faecalis (GC 2242)): 0.5 to 1 µg/mL; MIC Enterococcus faecalis (GC 2691) (Enterococcus sp.; Enterococcus faecalis (GC 2691)): 0.5 µg/mL (≈ 0.347 µM); MIC Enterococcus faecalis (GC 3059) (Enterococcus sp.; Enterococcus faecalis (GC 3059)): 0.5 µg/mL (≈ 0.347 µM); MIC Enterococcus faecalis (GC 4552) (Enterococcus sp.; Enterococcus faecalis (GC 4552)): 0.5 to 1 µg/mL; MIC Enterococcus faecalis (GC 4553) (Enterococcus sp.; Enterococcus faecalis (GC 4553)): 0.5 to 1 µg/mL; MIC Enterococcus faecalis (GC 4554) (Enterococcus sp.; Enterococcus faecalis (GC 4554)): 0.5 to 1 µg/mL; MIC Enterococcus faecalis (GC 6189) (Enterococcus sp.; Enterococcus faecalis (GC 6189)): 0.5 µg/mL (≈ 0.347 µM); MIC Enterococcus faecium (GC 2243) (Enterococcus sp.; Enterococcus faecium (GC 2243)): 1 to 2 µg/mL; MIC Enterococcus faecium (GC 4556) (Enterococcus sp.; Enterococcus faecium (GC 4556)): 2 µg/mL (≈ 1.39 µM); MIC Enterococcus faecium (GC 4557) (Enterococcus sp.; Enterococcus faecium (GC 4557)): 1 to 2 µg/mL; MIC Enterococcus faecalis (ATCC 29212) (Enterococcus sp.; strain ATCC 29212): 0.5 to 2 µg/mL; MIC Enterococcus faecalis (GC 2242) (Enterococcus sp.; strain GC 2242): 0.5 to 1 µg/mL; MIC Enterococcus faecium (GC 2243) (Enterococcus sp.; strain GC 2243): 1 to 2 µg/mL; MIC Enterococcus faecalis (GC 2691) (Enterococcus sp.; strain GC 2691): 0.5 µg/mL (≈ 0.347 µM); MIC Enterococcus faecalis (GC 3059) (Enterococcus sp.; strain GC 3059): 0.5 µg/mL (≈ 0.347 µM); MIC Enterococcus faecalis (GC 4552) (Enterococcus sp.; strain GC 4552): 0.5 to 1 µg/mL; MIC Enterococcus faecalis (GC 4553) (Enterococcus sp.; strain GC 4553): 0.5 to 1 µg/mL; MIC Enterococcus faecalis (GC 4554) (Enterococcus sp.; strain GC 4554): 0.5 to 1 µg/mL; MIC Enterococcus faecium (GC 4556) (Enterococcus sp.; strain GC 4556): 2 µg/mL (≈ 1.39 µM); MIC Enterococcus faecium (GC 4557) (Enterococcus sp.; strain GC 4557): 1 to 2 µg/mL; MIC Enterococcus avium (GC 4558) (Enterococcus sp.; strain GC 4558): 0.5 to 2 µg/mL; MIC Enterococcus faecalis (GC 6189) (Enterococcus sp.; strain GC 6189): 0.5 µg/mL (≈ 0.347 µM); MIC Escherichia coli (ATCC 25922) (Escherichia coli; strain ATCC 25922, 18 hours at 35° C.): 64-64 μg/mL; MIC Escherichia coli (GC 4559) (Escherichia coli; strain GC 4559, 18 hours at 35° C.): 64 µg/mL (≈ 44.5 µM); MIC Escherichia coli (GC 4560) (Escherichia coli; strain GC 4560, 18 hours at 35° C.): 0.5 to 2 µg/mL; MIC Staphylococcus aureus (GC 3051) (Staphylococcus sp.; strain GC 3051): 0.5 µg/mL (≈ 0.347 µM); MIC Staphylococcus aureus (GC 3053) (Staphylococcus sp.; strain GC 3053): 0.5 µg/mL (≈ 0.347 µM); MIC Staphylococcus aureus (GC 4542) (Staphylococcus sp.; strain GC 4542): 0.5 to 1 µg/mL; MIC Staphylococcus aureus-SMITH (GC 4543) (Staphylococcus sp.; strain GC 4543): 0.5 to 1 µg/mL; MIC Staphylococcus aureus (GC 4544) (Staphylococcus sp.; strain GC 4544): 0.5 to 1 µg/mL; MIC Staphylococcus aureus (GC 4545) (Staphylococcus sp.; strain GC 4545): 0.5 to 1 µg/mL; MIC Staphylococcus haemolyticus (GC 4546) (Staphylococcus sp.; strain GC 4546): 1 to 2 µg/mL; MIC Coagulase Negative Staphylococcus (GC 4547) (Staphylococcus sp.; strain GC 4547): 1 to 2 µg/mL; MIC Coagulase Negative Staphylococcus (GC 4548) (Staphylococcus sp.; strain GC 4548): <0.5 to 1 µg/mL; MIC Coagulase Negative Staphylococcus (GC 4549) (Staphylococcus sp.; strain GC 4549): <0.5 to 1 µg/mL; MIC Coagulase Negative Staphylococcus (GC 4551) (Staphylococcus sp.; strain GC 4551): 1 µg/mL (≈ 0.695 µM); MIC Coagulase Negative Staphylococcus (GC 6257) (Staphylococcus sp.; strain GC 6257): 2 µg/mL (≈ 1.39 µM); MIC Coagulase Negative Staphylococcus (ID-3941) (Staphylococcus sp.; strain ID-3941): 1 µg/mL (≈ 0.695 µM); MIC Staphylococcus aureus-SMITH (GC 4543) (Staphylococcus sp.; strain SMITH GC 4543): 0.5 to 1 µg/mL; MIC Streptococcus agalactiae (GC 4564) (Streptococcus sp.; Streptococcus agalactiae (GC 4564)): <0.12 µg/mL; MIC Streptococcus pyogenes (GC 4563) (Streptococcus sp.; Streptococcus pyogenes (GC 4563)): >0.12 µg/mL; MIC Streptococcus pyogenes (ID-3187) (Streptococcus sp.; Streptococcus pyogenes (ID-3187)): <0.5 µg/mL; MIC Streptococcus pyogenes (GC 4563) (Streptococcus sp.; strain GC 4563): >0.12 µg/mL; MIC Streptococcus agalactiae (GC 4564) (Streptococcus sp.; strain GC 4564): <0.12 µg/mL; MIC Streptococcus pyogenes (ID-3187) (Streptococcus sp.; strain ID-3187): <0.5 µg/mL
